Assay results as given in patent US11591288B2, “Compositions and methods for treating atherosclerotic cardiovascular disease” (GAVISH-GALILEE BIO APPLICATIONS LTD., priority 2017, dated 2023).
Like-named read-outs stand apart in the source and are kept apart here.

Columns and labels:
PON1 = PON1 (Homo sapiens, UniProt P27169); experiment: PON1 binding to HDL (ratio HDL-bound PON1 vs. free PON1); conditions: data not shown
APOA1 = APOA1 (Homo sapiens, UniProt P02647); experiment: APOA1-lyso-DGTS interaction, Trp fluorescence quenching; assay type: binding; conditions: for Kd: read-out: Binding constant Ka, lyso-DGTS-APOA1 (converted)
Protocol: The Trp-fluorescence-quenching method was further used to examine the interaction between lyso-DGTS and APOA1, the major protein component of HDL. Ka and thermodynamic parameters were also calculated (Table 6). […] The values obtained for n were not affected by temperature and were equal to=1 (Table 6).
The thermodynamic parameters: enthalpy (ΔH), entropy (ΔS), and free energy (ΔG) were calculated to characterize the APOA1-lyso-DGTS interaction type.

APOA1, sequence (P02647 19-267, species assumed): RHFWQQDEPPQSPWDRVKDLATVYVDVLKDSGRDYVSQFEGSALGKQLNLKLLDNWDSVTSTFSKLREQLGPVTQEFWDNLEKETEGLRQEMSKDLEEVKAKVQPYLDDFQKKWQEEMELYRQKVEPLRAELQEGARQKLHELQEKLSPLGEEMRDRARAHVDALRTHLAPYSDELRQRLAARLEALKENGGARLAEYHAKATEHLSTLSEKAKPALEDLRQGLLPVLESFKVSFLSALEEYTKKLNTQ
PON1, sequence (P27169 whole entry, species assumed): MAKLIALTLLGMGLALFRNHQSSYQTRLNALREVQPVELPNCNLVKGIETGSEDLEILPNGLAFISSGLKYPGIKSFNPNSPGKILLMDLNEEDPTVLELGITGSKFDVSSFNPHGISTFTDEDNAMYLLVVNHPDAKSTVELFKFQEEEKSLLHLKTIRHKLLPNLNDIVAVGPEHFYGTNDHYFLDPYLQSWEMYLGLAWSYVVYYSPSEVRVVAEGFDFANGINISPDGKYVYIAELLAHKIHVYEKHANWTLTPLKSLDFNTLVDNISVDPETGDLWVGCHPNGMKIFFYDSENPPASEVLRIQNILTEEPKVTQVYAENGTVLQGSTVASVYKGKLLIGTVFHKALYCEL

CC/C=C\C/C=C\C/C=C\C/C=C\C/C=C\CCCC(=O)OCC(O)COCCC(C(=O)[O-])[N+](C)(C)C (stereo not drawn) [lyso-DGTS, lyso-diacylglyceryltrimethylhornmoserine]
ratio between HDLbound-PON1 vs. free-PON1 (PON1): did not change | number of binding sites (n), lyso-DGTS-APOA1 (APOA1; 298 K): 1.01 ± 0.05 | ΔG, lyso-DGTS-APOA1 interaction (APOA1; 298 K): -1.09 kcal/mol | Kd (APOA1; 298 K (25° C.)): 422 µM | number of binding sites (n), lyso-DGTS-APOA1 (APOA1; 310 K): 1.23 ± 0.05 | ΔG, lyso-DGTS-APOA1 interaction (APOA1; 310 K): -1.464 kcal/mol | Kd (APOA1; 310 K (37° C.)): 43.9 µM | ΔH, lyso-DGTS-APOA1 interaction (APOA1; from 298 and 310 K): 8.243 kcal/mol | ΔS, lyso-DGTS-APOA1 interaction (APOA1; from 298 and 310 K): 131.126 J/mol K
